Results as given in patent publication US20120219538A1, “STABILIZED PROTEIN FORMULATIONS AND USE THEREOF” (THERAPEOMIC AG, priority 2009, published 2012).
Read-outs that look alike come from different tables or passages of the source.

Target: T1, salmon calcitonin (sCT) (Oncorhynchus keta, UniProt P01263)
T1 construct: Salmon calcitonin is a 32-amino acid polypeptide hormone; purchased Therapeomic Inc., Switzerland
T1 sequence (P01263 83-114 limits assumed): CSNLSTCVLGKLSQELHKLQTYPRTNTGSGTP
Type: physicochemical
Settings: 10 mM sodium citrate buffer pH 6, 1:1 molar ratio; for slope of aggregation curve: Nile red fluorescence at 620 nm; for lag time of aggregation: OD at 450 nm
Experimental: Salmon calcitonin (Therapeomic Inc., Switzerland) in a final concentration of 2.5 mg/ml per well with and without the respective excipients to be tested, i.e. non-conjugated mPEG-amines and non-conjugated hydrophobic headgroups were prepared in 4 different buffer systems: 10 mM sodium acetate pH 5, 10 mM sodium citrate pH 5, 10 mM sodium citrate pH 6, 10 mM sodium phosphate buffer pH 8. Samples are prepared two times and nile red in a final concentration of 1 μM is added to one of each. Aggregation is followed in UV-transparent 96-well plates or 384-well Costar® plates from Corning (Corning Life Sciences, Schiphol, Netherlands) by a microplate reader (Tecan Safire™ microplate reader, Tecan Group Ltd, Männedorf, Switzerland) by monitoring turbidity, nile red fluorescence and intrinsic fluorescence of the protein/peptide drug or the hydrophobic head-group. After finishing the aggregation kinetics, final spectra of nile red fluorescence, UV and protein/peptide drug or hydrophobic head group fluorescence were measured.
Aggregation was checked in absence of any excipient, in presence of equimolar amounts of dansylamide, mPEG-amine 2 kD and dansyl-mPEG 2 kD, respectively.

In the case of salmon calcitonin [sCT], the “slope of aggregation curve” value (Table 2) was 1843 a.u./hrs, the “lag time of aggregation” value (Table 2) was 3.5 h and the “Nile red fluorescence at 620 nm” value (Table 2, time 0 hrs) was 1058. The “OD at 450 nm” value (Table 2, time 0 hrs) was 0.10, the “Nile red fluorescence at 620 nm” value (Table 2, time 9.5 hrs) was 18581 and the “OD at 450 nm” value (Table 2, time 9.5 hrs) was 0.22. The “Nile red fluorescence at 620 nm” value (Table 2, time 20 hrs) was 27276, the “OD at 450 nm” value (Table 2, time 20 hrs) was 0.63 and the “Nile red fluorescence at 620 nm” value (Table 2, time 100 hrs) was 25328. The “OD at 450 nm” value (Table 2, time 100 hrs) was 0.68, the “Nile red fluorescence at 620 nm” value (Table 2, time 166 hrs) was 24729 and the “OD at 450 nm” value (Table 2, time 166 hrs) was 0.64. The “slope of aggregation curve” value (Table 3, higher detector sensitivity) was 5546 a.u./hrs, the “lag time of aggregation” value (Table 3) was 4.2 h and the “OD at 450 nm” value (Table 3, time 0 hrs) was 0.11. For the same substance, the “Nile red fluorescence at 620 nm” value (Table 3, time 0 hrs, higher sensitivity of the fluorescence detector than Table 2) was 4560, the “Nile red fluorescence at 620 nm” value (Table 3, time 5 hrs, higher sensitivity of the fluorescence detector than Table 2) was 38483 and the “OD at 450 nm” value (Table 3, time 6.2 hrs) was 0.15. The “OD at 450 nm” value (Table 3, time 10 hrs) was 0.22, the “Nile red fluorescence at 620 nm” value (Table 3, time 10 hrs, higher sensitivity of the fluorescence detector than Table 2) was 61019 and the “Nile red fluorescence at 620 nm” value (Table 3, time 13.5 hrs, higher sensitivity of the fluorescence detector than Table 2) was >65000. For the same substance, the “Nile red fluorescence at 620 nm” value (Table 3, time 20 hrs, higher sensitivity of the fluorescence detector than Table 2) was >65000, the “OD at 450 nm” value (Table 3, time 30.5 hrs) was 0.49 and the “OD at 450 nm” value (Table 3, time 140 hrs) was 0.56.
